Experimental data reported in publication PMC12775434, “Ultra-large virtual screening unveils potent agonists of the neuromodulatory orphan receptor GPR139” (Nature Communications, 2025).
Where “and” joins values, the source holds several entries; their conditions need not be identical. Equal entries are not always repeated. Where two headings read alike, the source gives them in different places.

Molecular target: T1, GPR139 (Homo sapiens, UniProt Q6DWJ6)
T1 sequence (Q6DWJ6 1-353): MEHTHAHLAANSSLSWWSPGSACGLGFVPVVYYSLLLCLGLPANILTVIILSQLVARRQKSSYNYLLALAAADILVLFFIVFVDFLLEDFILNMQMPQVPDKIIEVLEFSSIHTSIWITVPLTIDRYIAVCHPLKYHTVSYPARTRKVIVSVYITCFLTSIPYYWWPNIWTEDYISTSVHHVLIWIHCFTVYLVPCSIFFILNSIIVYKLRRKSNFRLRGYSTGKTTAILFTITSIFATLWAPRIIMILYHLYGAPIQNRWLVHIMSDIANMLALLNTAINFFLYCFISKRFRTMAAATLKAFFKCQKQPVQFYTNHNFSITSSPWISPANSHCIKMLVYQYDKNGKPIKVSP
Assay: Ca2+ mobilization assay, agonist mode, stable GPR139-CHOk1 cell line
Type: cell-based
Conditions: for Emax: normalized to Lundbeck Cmp 1a, read-out: Emax (%) Ca2+
In short: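 Agonist activity of compounds is assessed in stably transfected CHO-K1 cells using the calcium dye Fluo-4 at 37 °C in HEPES-buffered HBSS (pH 7.4). Efficacy is expressed relative to the reference agonist Lundbeck Cmp 1a, set as 100%.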

[1] = Agonist mode, individual replicates (Supplementary Figure 4)
[2] = GPR139-CHOk1, read-out: EC50, Ca2+ mobilization
[3] = Supplementary Table 2, mean ± SEM
[4] = log [Compound] M -4.5, replicate experiments
[5] = log [Compound] M -5.0, replicate experiments
[6] = log [Compound] M -5.5, replicate experiments
[7] = log [Compound] M -6.0, replicate experiments
[8] = log [Compound] M -6.5, replicate experiments
[9] = log [Compound] M -7.0, replicate experiments
[10] = log [Compound] M -7.5, replicate experiments
[11] = log [Compound] M -8.0, replicate experiments
[12] = log [Compound] M -8.5, replicate experiments
[13] = log [Compound] M -9.0, replicate experiments
[14] = log [Compound] M = -4.5, individual replicate columns
[15] = log [Compound] M = -5.0, individual replicate columns
[16] = log [Compound] M = -5.5, individual replicate columns
[17] = log [Compound] M = -6.0, individual replicate columns
[18] = log [Compound] M = -6.5, individual replicate columns
[19] = log [Compound] M = -7.0, individual replicate columns
[20] = log [Compound] M = -7.5, individual replicate columns
[21] = log [Compound] M = -8.0, individual replicate columns
[22] = log [Compound] M = -8.5, individual replicate columns
[23] = log [Compound] M = -9.0, individual replicate columns

SMILES | Ca2+ signal (% of Cmp 1a) [1] | EC50 [2] | Emax [3] | Ca2+ signal (% of Cmp 1a) [4] | Ca2+ signal (% of Cmp 1a) [5] | Ca2+ signal (% of Cmp 1a) [6] | Ca2+ signal (% of Cmp 1a) [7] | Ca2+ signal (% of Cmp 1a) [8] | Ca2+ signal (% of Cmp 1a) [9] | Ca2+ signal (% of Cmp 1a) [10] | Ca2+ signal (% of Cmp 1a) [11] | Ca2+ signal (% of Cmp 1a) [12] | Ca2+ signal (% of Cmp 1a) [13] | Ca2+ signal (% of Cmp 1a) [14] | Ca2+ signal (% of Cmp 1a) [15] | Ca2+ signal (% of Cmp 1a) [16] | Ca2+ signal (% of Cmp 1a) [17] | Ca2+ signal (% of Cmp 1a) [18] | Ca2+ signal (% of Cmp 1a) [19] | Ca2+ signal (% of Cmp 1a) [20] | also measured
Cc1cscc1-c1nc(CC(=O)NC(C)c2ccccc2)no1 (stereo not drawn) [Compound 1.1, CC(C1=CC=CC=C1)NC(CC2=NOC(C3=CSC=C3C)=N2)=O] | 96 % of Cmp 1a and 101 % of Cmp 1a and 83 % of Cmp 1a | 0.05 µM | 125 ± 12% | 130 % of Cmp 1a and 133 % of Cmp 1a and 104 % of Cmp 1a and 91 % of Cmp 1a | 136 % of Cmp 1a and 130 % of Cmp 1a and 133 % of Cmp 1a and 83 % of Cmp 1a | 124 % of Cmp 1a and 109 % of Cmp 1a and 177 % of Cmp 1a and 86 % of Cmp 1a | 113 % of Cmp 1a and 116 % of Cmp 1a and 167 % of Cmp 1a and 85 % of Cmp 1a | 103 % of Cmp 1a and 101 % of Cmp 1a and 147 % of Cmp 1a and 66 % of Cmp 1a | 80 % of Cmp 1a and 83 % of Cmp 1a and 116 % of Cmp 1a and 48 % of Cmp 1a | 60 % of Cmp 1a and 56 % of Cmp 1a and 80 % of Cmp 1a and 40 % of Cmp 1a | 36 % of Cmp 1a and 26 % of Cmp 1a and 21 % of Cmp 1a and 24 % of Cmp 1a | 21 % of Cmp 1a and 9 % of Cmp 1a and -4 % of Cmp 1a and 18 % of Cmp 1a | 19 % of Cmp 1a and 13 % of Cmp 1a and -16 % of Cmp 1a and 5.33 % of Cmp 1a | 130 % of Cmp 1a and 133 % of Cmp 1a and 104 % of Cmp 1a and 91 % of Cmp 1a | 136 % of Cmp 1a and 130 % of Cmp 1a and 133 % of Cmp 1a and 83 % of Cmp 1a | 124 % of Cmp 1a and 109 % of Cmp 1a and 177 % of Cmp 1a and 86 % of Cmp 1a | 113 % of Cmp 1a and 116 % of Cmp 1a and 167 % of Cmp 1a and 85 % of Cmp 1a | 103 % of Cmp 1a and 101 % of Cmp 1a and 147 % of Cmp 1a and 66 % of Cmp 1a | 80 % of Cmp 1a and 83 % of Cmp 1a and 116 % of Cmp 1a and 48 % of Cmp 1a | 60 % of Cmp 1a and 56 % of Cmp 1a and 80 % of Cmp 1a and 40 % of Cmp 1a | fold improved potency compared to compound 1 (Ca2+ mobilization EC50): 3 fold; Ca2+ signal (% of Cmp 1a) [21]: 36 % of Cmp 1a and 26 % of Cmp 1a and 21 % of Cmp 1a and 24 % of Cmp 1a; Ca2+ signal (% of Cmp 1a) [22]: 21 % of Cmp 1a and 9 % of Cmp 1a and -4 % of Cmp 1a and 18 % of Cmp 1a; Ca2+ signal (% of Cmp 1a) [23]: 19 % of Cmp 1a and 13 % of Cmp 1a and -16 % of Cmp 1a and 5.33 % of Cmp 1a
COC(=O)c1cc(NC(=O)NC(C)c2cccc(F)c2F)ccc1C (stereo not drawn) [Compound 2, COC(=O)C=1C=C(NC(=O)NC(C)C=2C=CC=C(F)C2F)C=CC1C] |  | 0.32 µM | 83 ± 6% | 74 % of Cmp 1a and 103 % of Cmp 1a and 90 % of Cmp 1a | 60 % of Cmp 1a and 92 % of Cmp 1a and 78 % of Cmp 1a | 65 % of Cmp 1a and 88 % of Cmp 1a and 71 % of Cmp 1a | 66 % of Cmp 1a and 74 % of Cmp 1a and 68 % of Cmp 1a | 25 % of Cmp 1a and 58 % of Cmp 1a and 38 % of Cmp 1a | 16 % of Cmp 1a and 20 % of Cmp 1a and 28 % of Cmp 1a | -9 % of Cmp 1a and -8 % of Cmp 1a and 6 % of Cmp 1a | -12 % of Cmp 1a and -7 % of Cmp 1a and 2.84 % of Cmp 1a | -1.88 % of Cmp 1a and 9 % of Cmp 1a and 21 % of Cmp 1a | -14 % of Cmp 1a and 6 % of Cmp 1a and 7 % of Cmp 1a |  |  |  |  |  |  |  | Ca2+ signal (% of Cmp 1a) (0.1 µM, individual replicates (Supplementary Figure 3)): 18.1 % of Cmp 1a and 15.9 % of Cmp 1a; Ca2+ signal (% of Cmp 1a) (1 µM, individual replicates (Supplementary Figure 3)): 65.0 % of Cmp 1a and 52.8 % of Cmp 1a; Ca2+ signal (% of Cmp 1a) (10 µM, individual replicates (Supplementary Figure 3)): 86.8 % of Cmp 1a and 54.5 % of Cmp 1a; Ca2+ signal (% of Cmp 1a) (Agonist mode, individual replicates (Supplementary Figure 1)): 81 % of Cmp 1a and 65 % of Cmp 1a and 84 % of Cmp 1a; Ca2+ signal (% of Cmp 1a) (primary screen, 10 µM compound, agonist mode, three columns = independent experiments): 81 % of Cmp 1a and 65 % of Cmp 1a and 84 % of Cmp 1a
Cc1cc(-c2nc(CC(=O)NC(C)c3ccccc3)no2)n(C)n1 (stereo not drawn) [Compound 1.16, CC(C1=CC=CC=C1)NC(CC2=NOC(C3=CC(C)=NN3C)=N2)=O] | 103 % of Cmp 1a and 82 % of Cmp 1a and 85 % of Cmp 1a |  | 93 ± 11% |  |  |  |  |  |  |  |  |  |  | 93 % of Cmp 1a and 107 % of Cmp 1a and 110 % of Cmp 1a and 60 % of Cmp 1a | 86 % of Cmp 1a and 100 % of Cmp 1a and 83 % of Cmp 1a and 67 % of Cmp 1a | 73 % of Cmp 1a and 90 % of Cmp 1a and 92 % of Cmp 1a and 46 % of Cmp 1a | 52 % of Cmp 1a and 66 % of Cmp 1a and 72 % of Cmp 1a and 20 % of Cmp 1a | 27 % of Cmp 1a and 50 % of Cmp 1a and 60 % of Cmp 1a and -0.5 % of Cmp 1a | 9 % of Cmp 1a and 39 % of Cmp 1a and 26 % of Cmp 1a and -9.5 % of Cmp 1a | 0.333 % of Cmp 1a and 7 % of Cmp 1a and 17 % of Cmp 1a and 1.5 % of Cmp 1a | EC50 (Supplementary Table 2, mean ± SEM, read-out: pEC50 Ca2+ (converted)): 0.631 µM; Ca2+ signal (% of Cmp 1a) [21]: -3 % of Cmp 1a (2×) and -1 % of Cmp 1a and 9 % of Cmp 1a; Ca2+ signal (% of Cmp 1a) [22]: 0 % of Cmp 1a and -5 % of Cmp 1a and 15 % of Cmp 1a and -2.5 % of Cmp 1a; Ca2+ signal (% of Cmp 1a) [23]: 1.67 % of Cmp 1a and -3 % of Cmp 1a and 20 % of Cmp 1a and -7 % of Cmp 1a
